Read-outs that look alike come from different tables or passages of the source.
Experiments:
[1] = molecular target: T1, human topo IIβ (Homo sapiens, UniProt Q02880); test: kDNA decatenation assay catalysed by human topo IIβ; assay type: biochemical; settings: for % Decatenated Assay 1 / % Decatenated Assay 2: % of decatenated kDNA; for % Decatenated Average: average of two assays
T1 construct: purchased Inspiralis (Norwich, UK)
Experimental: One U of human topo II (α or β) was incubated with 200 ng kDNA in a 30 µL reaction at 37°C for 30 minutes under the following conditions: 50 mM Tris HCl (pH 7.5), 125 mM NaCl, 10 mM MgCl2, 5 mM DTT, 0.5 mM EDTA, 0.1 mg/ml bovine serum albumin (BSA) and 1 mM ATP. Compounds 1 and 9 were serially diluted in DMSO and added to the reaction mixture before the addition of the enzyme. Etoposide was used as a control compound. Each reaction was then stopped by the addition of 30 µL chloroform/iso-amyl alcohol ([…]) and 30 µL Stop Dye (40 % sucrose (w/v), 100 mM Tris.HCl (pH 7.5), 10 mM EDTA, 0.5 µg/mL bromophenol blue), before being loaded on a 1% TAE gel run at 85 V for 90 minutes. Assays were performed at 4 concentrations of ligand: 3.9, 31.5, 125 and 500 µM. The final DMSO concentration in all reactions was 1 % (v/v).
(§1) Bands were visualized by the ethidium bromide staining for 15 minutes and destaining for subsequent 10 minutes. Gels were scanned using the documentation equipment (GeneGenius, Syngene, Cambridge, UK) and inhibition levels were calculated from band data obtained with gel scanning software (GeneTools, Syngene, Cambridge,UK). Experiment was performed in duplicates for all compounds.

[2] = molecular target: T2, human topo IIα (Homo sapiens, UniProt P11388); test: human topo IIα cleavage assay (linear DNA); assay type: biochemical
T2 construct: purchased Inspiralis (Norwich, UK)
Experimental: To determine if compounds act as topo II poisons, cleavage assay was performed for compounds 1 and 9.
Selected compounds were tested at four concentrations: 3.9, 31.5, 125 and 500 µM. The reaction was then incubated for additional 30 minutes with 0.2 % SDS and 0.5 µg/µL proteinase K. Subsequently the reaction was stopped by adding 30 µL of chloroform/iso-amyl alcohol ([…]) and 30 µL of Stop Dye (40 % sucrose (w/v), 100 mM Tris.HCl (pH 7.5), 10 mM EDTA, 0.5 µg/mL bromophenol blue), before sample being loaded on the 1 % TAE gel run at 80 V for 2 hours.
as §1, with “cleavage” for “inhibition”, “from the” for “from”, “by the” for “with”, “The human topo IIα cleavage assay” for “Experiment”, “collaboration with Inspiralis (Norwich, UK).” for “duplicates for all compounds.”

[3] = system: MCF-7 cells; test: MTS cytotoxicity assay, MCF-7; assay type: cell-based, human; settings: Homo sapiens, interval in brackets
Excerpt: (§2) We determined the cytotoxicity of the tested compounds on human breast cancer MCF-7 and human hepatocellular carcinoma HepG2 cancer cell lines using MTS assay. Both selected human cancer cell lines are representative and well-established systems for cell-based evaluation of potential anticancer compounds. Etoposide was again used as a positive control (PC).
(§3) In the first step we performed the initial screening of compounds 1-14 at one concentration. […] Exponentially growing cells were exposed to all compounds for 24 h and the results are represented in Figure 3A.
(§4) In vitro cytotoxicity of investigated compounds was evaluated in two human cancer cell lines: the […] cell lines. The HepG2 cells (ATCC) were cultivated at 37 °C and 5 % CO2 in MEME medium (M2414, Sigma) supplemented with 10 % FBS, 2 mM L-Glutamine, 1 % NEAA, 2.2 g/L NaHCO3, 1 mM sodium pyruvate and 100 IU/mL penicillin/ streptomycin and MCF-7 (ATCC) were cultivated in Eagle's MEM medium (M5650, Sigma), supplemented with 10 % fetal bovine serum, 2 mM glutamine, and 100 IU/mL penicillin/streptomycin. After the exposure to the tested compounds the viability of HepG2 and MCF-7 cells was determined by MTS tetrazolium reduction assay. The cells were seeded onto 96-well microplates (Nunc, TermoFisher Scientific, Waltham, MA, USA) at densities of 8000 cells per well (HepG2) and 7000 cells per well (MCF-7) in […] growth medium and incubated overnight to attach. The next day, the growth medium was replaced by the fresh complete growth medium containing appropriate concentrations of the compounds. […] Finally, the absorbance was measured at wavelength of 490 nm using a Microplate Reader (Synergy MX, BioTek, Winooski, VT, USA). […] Assay was performed at 5 concentrations of each compound; 2, 25, 50, 100 and 200 µM for compounds 1, 7 and 14 and 1, 12.5, 25, 50, 100 µM for compounds 9 and 10. […] Cell viability was determined by comparing the OD (optical density) of the wells containing the cells treated with investigated compounds with those of solvent control cells and presented as % of cell viability ± SD. Experiments were performed three times independently each time in at least three replicates. EC50 values were calculated by non-linear regression analysis using GraphPad Prism 7.0 Software. Statistical significance between treated groups and the control was determined by One-way analysis of variance and Dunnett's Multiple Comparison Test.

[4] = system: HepG2 cells; test: MTS cytotoxicity assay, HepG2; assay type: cell-based, human; settings: Homo sapiens, interval in brackets
Excerpt: as §2, §3, §4

[5] = MCF7, read-out: EC50 [µM] MCF-7 (24h), 24h exposure
[6] = MCF7, 72h exposure, read-out: EC50 [µM] MCF-7 (72h)
[7] = HepG2, read-out: EC50 [µM] HepG2 (24h), 24h exposure
[8] = HepG2, 72h exposure, read-out: EC50 [µM] HepG2 (72h)

T2 sequence (P11388 whole entry): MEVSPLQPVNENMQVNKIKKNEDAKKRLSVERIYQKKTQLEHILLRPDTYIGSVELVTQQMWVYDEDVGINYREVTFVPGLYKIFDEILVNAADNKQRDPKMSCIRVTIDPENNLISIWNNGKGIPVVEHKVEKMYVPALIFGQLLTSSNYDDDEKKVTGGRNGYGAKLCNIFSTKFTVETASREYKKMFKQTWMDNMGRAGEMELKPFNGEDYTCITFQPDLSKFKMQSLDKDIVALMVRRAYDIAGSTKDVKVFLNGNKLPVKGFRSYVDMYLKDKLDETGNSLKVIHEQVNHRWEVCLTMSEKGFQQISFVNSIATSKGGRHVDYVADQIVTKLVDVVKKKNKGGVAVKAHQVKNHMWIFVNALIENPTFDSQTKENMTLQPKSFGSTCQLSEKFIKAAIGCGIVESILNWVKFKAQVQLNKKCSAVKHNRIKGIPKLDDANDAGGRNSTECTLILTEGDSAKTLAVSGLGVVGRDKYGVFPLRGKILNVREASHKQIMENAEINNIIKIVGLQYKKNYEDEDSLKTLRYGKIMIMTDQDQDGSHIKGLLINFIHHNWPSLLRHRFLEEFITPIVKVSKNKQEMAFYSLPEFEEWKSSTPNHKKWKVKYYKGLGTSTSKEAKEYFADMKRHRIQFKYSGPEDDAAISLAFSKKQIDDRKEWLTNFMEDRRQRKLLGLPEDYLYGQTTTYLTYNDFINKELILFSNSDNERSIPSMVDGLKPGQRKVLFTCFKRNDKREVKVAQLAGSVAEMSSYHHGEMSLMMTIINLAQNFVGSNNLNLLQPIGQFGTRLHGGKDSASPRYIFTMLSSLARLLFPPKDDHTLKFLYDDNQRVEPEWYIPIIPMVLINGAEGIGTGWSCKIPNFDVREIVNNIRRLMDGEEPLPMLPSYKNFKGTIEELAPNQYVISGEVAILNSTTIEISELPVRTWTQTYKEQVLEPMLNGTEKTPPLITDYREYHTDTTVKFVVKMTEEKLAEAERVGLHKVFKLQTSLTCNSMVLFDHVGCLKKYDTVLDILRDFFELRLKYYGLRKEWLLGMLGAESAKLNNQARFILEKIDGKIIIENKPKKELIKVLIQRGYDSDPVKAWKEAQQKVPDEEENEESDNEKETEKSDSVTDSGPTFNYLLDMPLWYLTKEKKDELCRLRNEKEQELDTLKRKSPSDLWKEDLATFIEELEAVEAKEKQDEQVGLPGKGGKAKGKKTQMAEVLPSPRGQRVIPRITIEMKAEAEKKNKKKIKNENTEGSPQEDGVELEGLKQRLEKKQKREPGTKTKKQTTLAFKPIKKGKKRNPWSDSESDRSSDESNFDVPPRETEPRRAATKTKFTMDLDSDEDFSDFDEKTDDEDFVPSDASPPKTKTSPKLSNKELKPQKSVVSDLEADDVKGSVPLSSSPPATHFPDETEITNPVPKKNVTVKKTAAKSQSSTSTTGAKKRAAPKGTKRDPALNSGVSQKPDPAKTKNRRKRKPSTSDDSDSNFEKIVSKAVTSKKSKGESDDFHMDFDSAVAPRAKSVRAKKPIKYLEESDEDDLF
T1 sequence (Q02880 whole entry): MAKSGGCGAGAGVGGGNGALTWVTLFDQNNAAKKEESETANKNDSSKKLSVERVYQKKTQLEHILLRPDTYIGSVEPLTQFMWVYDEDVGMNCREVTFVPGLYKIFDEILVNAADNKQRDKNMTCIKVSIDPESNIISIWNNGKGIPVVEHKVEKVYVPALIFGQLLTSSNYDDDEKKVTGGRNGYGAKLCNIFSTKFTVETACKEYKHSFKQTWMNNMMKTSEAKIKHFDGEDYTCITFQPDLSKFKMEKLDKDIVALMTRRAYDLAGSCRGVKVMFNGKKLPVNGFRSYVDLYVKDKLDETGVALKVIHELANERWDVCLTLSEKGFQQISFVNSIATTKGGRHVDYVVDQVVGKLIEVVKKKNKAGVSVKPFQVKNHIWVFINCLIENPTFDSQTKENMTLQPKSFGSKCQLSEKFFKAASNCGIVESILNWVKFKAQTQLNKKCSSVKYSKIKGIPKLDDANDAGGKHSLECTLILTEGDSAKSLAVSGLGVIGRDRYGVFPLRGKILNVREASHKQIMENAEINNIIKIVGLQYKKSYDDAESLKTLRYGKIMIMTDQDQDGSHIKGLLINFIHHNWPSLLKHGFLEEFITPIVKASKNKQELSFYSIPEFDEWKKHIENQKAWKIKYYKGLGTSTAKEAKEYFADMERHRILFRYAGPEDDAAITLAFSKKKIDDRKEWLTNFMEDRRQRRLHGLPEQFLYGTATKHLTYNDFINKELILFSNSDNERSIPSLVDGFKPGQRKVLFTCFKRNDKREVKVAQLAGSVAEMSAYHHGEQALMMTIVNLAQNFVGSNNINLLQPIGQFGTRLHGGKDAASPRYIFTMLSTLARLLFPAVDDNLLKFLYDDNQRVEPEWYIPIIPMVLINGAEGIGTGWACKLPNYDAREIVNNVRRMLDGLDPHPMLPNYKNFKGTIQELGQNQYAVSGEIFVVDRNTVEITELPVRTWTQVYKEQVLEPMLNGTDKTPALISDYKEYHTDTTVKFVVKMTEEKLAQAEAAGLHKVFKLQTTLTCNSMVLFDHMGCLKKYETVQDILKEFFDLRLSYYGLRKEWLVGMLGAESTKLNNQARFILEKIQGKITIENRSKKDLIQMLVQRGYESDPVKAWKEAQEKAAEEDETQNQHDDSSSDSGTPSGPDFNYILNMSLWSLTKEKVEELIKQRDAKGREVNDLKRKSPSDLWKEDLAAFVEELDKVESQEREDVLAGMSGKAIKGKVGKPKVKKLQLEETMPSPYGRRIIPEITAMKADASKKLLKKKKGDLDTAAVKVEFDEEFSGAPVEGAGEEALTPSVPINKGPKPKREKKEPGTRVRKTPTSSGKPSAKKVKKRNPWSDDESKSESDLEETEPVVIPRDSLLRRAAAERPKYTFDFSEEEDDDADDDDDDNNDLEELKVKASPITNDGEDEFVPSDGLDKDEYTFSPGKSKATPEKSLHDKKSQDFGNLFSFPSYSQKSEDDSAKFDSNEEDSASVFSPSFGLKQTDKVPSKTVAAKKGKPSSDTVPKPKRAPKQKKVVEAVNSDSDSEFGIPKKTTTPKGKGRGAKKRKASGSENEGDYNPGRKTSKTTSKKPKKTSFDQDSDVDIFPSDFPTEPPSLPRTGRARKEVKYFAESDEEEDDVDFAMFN

Row | SMILES | % Decatenated Assay 1 ([1]; 3.9 µM) [%] | % Decatenated Assay 2 ([1]; 3.9 µM) [%] | % Decatenated Assay 1 ([1]; 31.5 µM) [%] | % Decatenated Assay 2 ([1]; 31.5 µM) [%] | % Decatenated Average ([1]; 31.5 µM) [%] | % Decatenated Assay 1 ([1]; 125 µM) [%] | % Decatenated Assay 2 ([1]; 125 µM) [%] | % Decatenated Average ([1]; 125 µM) [%] | % Decatenated Assay 1 ([1]; 500 µM) [%] | % Decatenated Assay 2 ([1]; 500 µM) [%] | % Decatenated Average ([1]; 500 µM) [%] | % Linear Average ([2]; 3.9 µM) [%] | % Linear ([2]; 3.9 µM, % Linear) [%] | % Linear ([2]; 3.9 µM, first % Linear column) [%] | % Linear Average ([2]; 31.5 µM) [%] | % Linear ([2]; 31.5 µM, % Linear) [%] | % Linear ([2]; 31.5 µM, first % Linear column) [%] | % Linear Average ([2]; 125 µM) [%] | % Linear ([2]; 125 µM, % Linear) [%] | % Linear ([2]; 125 µM, first % Linear column) [%] | also measured
1 | Cc1nc(N)sc1-c1csc(Nc2ccc(C(F)(F)F)cc2)n1 [Compound 1, 4'-methyl-N2-(4-(trifluoromethyl)phenyl)-[4,5'-bithiazole]-2,2'-diamine] | 87.3 | 95.5 | 78.6 | 79.7 | 79.2 | 0 | 0 | 0 | 0 | 0 | 0 | 6.81 | 5.57 | 8.05 | 7.04 | 7.77 | 6.32 | 2.94 | 2.85 | 3.02 | % Decatenated Average ([1]; 3.9 µM): 91.3%; inhibition at 31.5 µM ([1]; 31.5 µM): 20.8%; % of inhibition of decatenation ([1]; 125 µM): fully inhibited; % of inhibition of decatenation ([1]; 500 µM): fully inhibited; % Linear Average ([2]; 500 µM): 2.72%; % Linear ([2]; 500 µM, % Linear): 2.98%; % Linear ([2]; 500 µM, first % Linear column): 2.45%; EC50 [3, 5]: 65 µM; EC50 [3, 6]: 59.5 µM; EC50 [4, 7]: 72.8 µM; EC50 [4, 8]: 46.8 µM
2 | COc1cc([C@@H]2c3cc4c(cc3[C@@H](O[C@@H]3O[C@@H]5CO[C@@H](C)O[C@H]5[C@H](O)[C@H]3O)[C@H]3COC(=O)[C@H]23)OCO4)cc(OC)c1O [Etoposide, etoposide, reference compound] | 100.0 | 100.0 | 94.0 | 92.8 | 93.4 | 24.6 | 23.1 | 23.9 | 150 | 14.4 | 14.7 | 17.32 | 11.88 | 22.76 | 34.63 | 36.26 | 33.00 | 41.13 | 36.91 | 45.35 | % Linear Average ([2]; 500 µM): 45.71%; % Linear ([2]; 500 µM, % Linear): 48.40%; % Linear ([2]; 500 µM, first % Linear column): 43.03%; amount of linear DNA (poison activity) ([2]; titration 3.9, 31.5, 125 and 500 µM, result in words): increased amount of linear DNA; EC50 [3, 5]: 320 µM; EC50 [3, 6]: 12.6 µM; EC50 [4, 7]: 196 µM; EC50 [4, 8]: 25.8 µM
3 | CC(=O)Nc1ccc(Nc2nc(-c3sc(NC(C)=O)nc3C)cs2)cc1 [Compound 9, N-(4-((2'-acetamido-4'-methyl-[4,5'-bithiazol]-2-yl)amino)phenyl)acetamide] | 87.0 | 75.6 | 80.1 | 73.3 | 76.7 | 30.5 | 21.7 | 26.1 | 17.5 | 5.3 | 11.4 | 6.26 | 7.03 | 5.49 | 7.26 | 6.75 | 7.77 | 4.72 | 4.60 | 4.84 | % Decatenated Average ([1]; 3.9 µM): 81.3%; inhibition at 125 µM ([1]; 125 µM): 73.9%; inhibition at 500 µM ([1]; 500 µM): 88.6%; % Linear Average ([2]; 500 µM): 2.60%; % Linear ([2]; 500 µM, % Linear): 2.25%; % Linear ([2]; 500 µM, first % Linear column): 2.95%; EC50 [3, 5]: 15 µM; EC50 [3, 6]: 13.8 µM; EC50 [4, 7]: 73.5 µM; EC50 [4, 8]: 23.5 µM

From patent publication EP3811940B1, “SUBSTITUTED 4,5'-BITHIAZOLES AS INHIBITORS OF THE HUMAN DNA TOPOISOMERASE II” (Kemijski Institut, priority 2019, dated 2021)
